Test results taken from US20260250318A1, “COMPOSITIONS AND METHODS FOR CROSSING THE BLOOD BRAIN BARRIER” (VOYAGER THERAPEUTICS, INC., priority 2022, published 2026).

Tests used:
[1] = tested on: brains, heart, liver, muscle, and DRG of the NHPs; test: Maturation of TTM-001 and TTM-002 capsids, NGS enrichment in NHP tissues; format: in vivo; details: relative to AAV9 control
Method in brief: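 Variants carry mutations within and flanking the loop IV peptide insert: positions 450–466 were triplet-randomized, while positions 449–466 received low-frequency point mutations. The combined pool went into two NHPs, and each peptide was scored by NGS enrichment ratio against AAV9.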

[2] = tested on: brain; test: Matured TTM-001 and TTM-002 variants, NGS enrichment in mouse brain; format: in vivo, mice; details: relative to AAV9 control
[3] = NGS fold-enrichment, DRG of NHPs
[4] = NGS fold-enrichment, RNA, brain of NHPs
[5] = NGS fold-enrichment, heart of NHPs
[6] = NGS fold-enrichment, liver DNA of NHPs
[7] = NGS fold-enrichment, liver RNA of NHPs
[8] = NGS fold-enrichment, muscle of NHPs
[9] = NGS fold-enrichment, brain of mice
[10] = NGS fold-enrichment of matured AAV capsid variants, NHP brain, RNA
[11] = NGS fold-enrichment of RNA, NHP brain
[12] = NGS fold-enrichment, NHP liver DNA
[13] = NGS fold-enrichment, NHP liver RNA
[14] = NGS fold-enrichment, NHP muscle
[15] = NGS fold-enrichment, mouse brain

KTINGSGSPHSKAQAKLT
Fold Enrichment relative to AAV9, DRG (NHP) [1, 3]: 0.000 fold
Fold Enrichment relative to AAV9, Brain (NHP) [1, 4]: 71.154 fold
Fold Enrichment relative to AAV9, Heart (NHP) [1, 5]: 0.273 fold
Fold Enrichment relative to AAV9, Liver DNA (NHP) [1, 6]: 0.777 fold
Fold Enrichment relative to AAV9, Liver RNA (NHP) [1, 7]: 1.591 fold
Fold Enrichment relative to AAV9, Muscle (NHP) [1, 8]: 0.017 fold
Fold Enrichment relative to AAV9, Brain (Mouse) [2, 9]: 130.132 fold

KTINGSGSPHSKAPSMQT
Fold Enrichment relative to AAV9, Brain (NHP) [1, 10]: 50.249 fold
Fold Enrichment relative to AAV9, DRG (NHP) ([1]; NHP DRG): 0.000 fold
Fold Enrichment relative to AAV9, Heart (NHP) ([1]; NHP heart): 0.000 fold
Fold Enrichment relative to AAV9, Liver DNA (NHP) ([1]; NHP liver, DNA): 0.460 fold
Fold Enrichment relative to AAV9, Liver RNA (NHP) ([1]; NHP liver, RNA): 0.941 fold
Fold Enrichment relative to AAV9, Muscle (NHP) ([1]; NHP muscle): 0.004 fold
Fold Enrichment relative to AAV9, Brain (Mouse) ([2]; mouse brain): 75.504 fold

KSINGSGSPHSKTQSQQT
Fold Enrichment relative to AAV9, Brain (NHP) [1, 10]: 58.608 fold
Fold Enrichment relative to AAV9, DRG (NHP) ([1]; NHP DRG): 0.000 fold
Fold Enrichment relative to AAV9, Heart (NHP) ([1]; NHP heart): 3.017 fold
Fold Enrichment relative to AAV9, Liver DNA (NHP) ([1]; NHP liver, DNA): 0.017 fold
Fold Enrichment relative to AAV9, Liver RNA (NHP) ([1]; NHP liver, RNA): 0.155 fold
Fold Enrichment relative to AAV9, Muscle (NHP) ([1]; NHP muscle): 0.000 fold
Fold Enrichment relative to AAV9, Brain (Mouse) ([2]; mouse brain): 71.397 fold

KSINGHDSPHKSGQIQHT
Fold Enrichment relative to AAV9, Brain (NHP) [1, 11]: 87.598 fold
Fold Enrichment relative to AAV9, DRG (NHP) ([1]; NGS fold-enrichment, NHP DRG): 0.000 fold
Fold Enrichment relative to AAV9, Heart (NHP) ([1]; NGS fold-enrichment, NHP heart): 0.480 fold
Fold Enrichment relative to AAV9, Liver DNA (NHP) [1, 12]: 0.347 fold
Fold Enrichment relative to AAV9, Liver RNA (NHP) [1, 13]: 0.714 fold
Fold Enrichment relative to AAV9, Muscle (NHP) [1, 14]: 0.000 fold
Fold Enrichment relative to AAV9, Brain (Mouse) [2, 15]: 13.872 fold

KTEDRSGSPHSKAQNQQT
Fold Enrichment relative to AAV9, DRG (NHP) [1, 3]: 0.000 fold
Fold Enrichment relative to AAV9, Brain (NHP) [1, 4]: 61.756 fold
Fold Enrichment relative to AAV9, Heart (NHP) [1, 5]: 0.000 fold
Fold Enrichment relative to AAV9, Liver DNA (NHP) [1, 6]: 0.408 fold
Fold Enrichment relative to AAV9, Liver RNA (NHP) [1, 7]: 1.004 fold
Fold Enrichment relative to AAV9, Muscle (NHP) [1, 8]: 0.000 fold
Fold Enrichment relative to AAV9, Brain (Mouse) [2, 9]: 66.887 fold

KTVNGSGSPHSKAQSLQT
Fold Enrichment relative to AAV9, Brain (NHP) [1, 10]: 55.497 fold
Fold Enrichment relative to AAV9, DRG (NHP) ([1]; NHP DRG): 0.000 fold
Fold Enrichment relative to AAV9, Heart (NHP) ([1]; NHP heart): 0.060 fold
Fold Enrichment relative to AAV9, Liver DNA (NHP) ([1]; NHP liver, DNA): 0.143 fold
Fold Enrichment relative to AAV9, Liver RNA (NHP) ([1]; NHP liver, RNA): 0.000 fold
Fold Enrichment relative to AAV9, Muscle (NHP) ([1]; NHP muscle): 0.000 fold
Fold Enrichment relative to AAV9, Brain (Mouse) ([2]; mouse brain): 69.033 fold

KAINGSGSPHSKAHNQET
Fold Enrichment relative to AAV9, Brain (NHP) [1, 10]: 52.973 fold
Fold Enrichment relative to AAV9, DRG (NHP) ([1]; NHP DRG): 0.000 fold
Fold Enrichment relative to AAV9, Heart (NHP) ([1]; NHP heart): 0.030 fold
Fold Enrichment relative to AAV9, Liver DNA (NHP) ([1]; NHP liver, DNA): 0.058 fold
Fold Enrichment relative to AAV9, Liver RNA (NHP) ([1]; NHP liver, RNA): 0.035 fold
Fold Enrichment relative to AAV9, Muscle (NHP) ([1]; NHP muscle): 0.000 fold
Fold Enrichment relative to AAV9, Brain (Mouse) ([2]; mouse brain): 71.809 fold

KTINGSGSPHSKAQKLNT
Fold Enrichment relative to AAV9, DRG (NHP) [1, 3]: 0.073 fold
Fold Enrichment relative to AAV9, Brain (NHP) [1, 4]: 67.782 fold
Fold Enrichment relative to AAV9, Heart (NHP) [1, 5]: 0.092 fold
Fold Enrichment relative to AAV9, Liver DNA (NHP) [1, 6]: 0.201 fold
Fold Enrichment relative to AAV9, Liver RNA (NHP) [1, 7]: 1.232 fold
Fold Enrichment relative to AAV9, Muscle (NHP) [1, 8]: 0.000 fold
Fold Enrichment relative to AAV9, Brain (Mouse) [2, 9]: 68.637 fold

KTVNGSGSPHSKAPNQQT
Fold Enrichment relative to AAV9, Brain (NHP) [1, 10]: 53.444 fold
Fold Enrichment relative to AAV9, DRG (NHP) ([1]; NHP DRG): 0.833 fold
Fold Enrichment relative to AAV9, Heart (NHP) ([1]; NHP heart): 2.206 fold
Fold Enrichment relative to AAV9, Liver DNA (NHP) ([1]; NHP liver, DNA): 0.178 fold
Fold Enrichment relative to AAV9, Liver RNA (NHP) ([1]; NHP liver, RNA): 0.156 fold
Fold Enrichment relative to AAV9, Muscle (NHP) ([1]; NHP muscle): 0.006 fold
Fold Enrichment relative to AAV9, Brain (Mouse) ([2]; mouse brain): 58.080 fold

KTISGGGSPHSKAQNQQN
Fold Enrichment relative to AAV9, DRG (NHP) [1, 3]: 0.000 fold
Fold Enrichment relative to AAV9, Brain (NHP) [1, 4]: 59.801 fold
Fold Enrichment relative to AAV9, Heart (NHP) [1, 5]: 0.000 fold
Fold Enrichment relative to AAV9, Liver DNA (NHP) [1, 6]: 0.039 fold
Fold Enrichment relative to AAV9, Liver RNA (NHP) [1, 7]: 0.722 fold
Fold Enrichment relative to AAV9, Muscle (NHP) [1, 8]: 0.000 fold
Fold Enrichment relative to AAV9, Brain (Mouse) [2, 9]: 87.761 fold

KTINGSGSPHSKSQNQHI
Fold Enrichment relative to AAV9, DRG (NHP) [1, 3]: 0.000 fold
Fold Enrichment relative to AAV9, Brain (NHP) [1, 4]: 59.438 fold
Fold Enrichment relative to AAV9, Heart (NHP) [1, 5]: 0.099 fold
Fold Enrichment relative to AAV9, Liver DNA (NHP) [1, 6]: 0.108 fold
Fold Enrichment relative to AAV9, Liver RNA (NHP) [1, 7]: 0.111 fold
Fold Enrichment relative to AAV9, Muscle (NHP) [1, 8]: 0.000 fold
Fold Enrichment relative to AAV9, Brain (Mouse) [2, 9]: 76.025 fold

KTINGHDSPHKSNAWQQT
Fold Enrichment relative to AAV9, Brain (NHP) [1, 11]: 84.825 fold
Fold Enrichment relative to AAV9, DRG (NHP) ([1]; NGS fold-enrichment, NHP DRG): 0.000 fold
Fold Enrichment relative to AAV9, Heart (NHP) ([1]; NGS fold-enrichment, NHP heart): 0.016 fold
Fold Enrichment relative to AAV9, Liver DNA (NHP) [1, 12]: 0.132 fold
Fold Enrichment relative to AAV9, Liver RNA (NHP) [1, 13]: 0.000 fold
Fold Enrichment relative to AAV9, Muscle (NHP) [1, 14]: 0.000 fold
Fold Enrichment relative to AAV9, Brain (Mouse) [2, 15]: 15.788 fold

KAINGSGSPHSKAQSQQI
Fold Enrichment relative to AAV9, Brain (NHP) [1, 10]: 56.976 fold
Fold Enrichment relative to AAV9, DRG (NHP) ([1]; NHP DRG): 0.000 fold
Fold Enrichment relative to AAV9, Heart (NHP) ([1]; NHP heart): 0.000 fold
Fold Enrichment relative to AAV9, Liver DNA (NHP) ([1]; NHP liver, DNA): 0.000 fold
Fold Enrichment relative to AAV9, Liver RNA (NHP) ([1]; NHP liver, RNA): 0.000 fold
Fold Enrichment relative to AAV9, Muscle (NHP) ([1]; NHP muscle): 0.000 fold
Fold Enrichment relative to AAV9, Brain (Mouse) ([2]; mouse brain): 57.052 fold

KESDGSGSPHSKAQNQQT
Fold Enrichment relative to AAV9, DRG (NHP) [1, 3]: 0.000 fold
Fold Enrichment relative to AAV9, Brain (NHP) [1, 4]: 63.766 fold
Fold Enrichment relative to AAV9, Heart (NHP) [1, 5]: 0.000 fold
Fold Enrichment relative to AAV9, Liver DNA (NHP) [1, 6]: 0.146 fold
Fold Enrichment relative to AAV9, Liver RNA (NHP) [1, 7]: 0.567 fold
Fold Enrichment relative to AAV9, Muscle (NHP) [1, 8]: 0.000 fold
Fold Enrichment relative to AAV9, Brain (Mouse) [2, 9]: 115.231 fold

KNINGSGSPHSKAQNHQT
Fold Enrichment relative to AAV9, Brain (NHP) [1, 10]: 54.248 fold
Fold Enrichment relative to AAV9, DRG (NHP) ([1]; NHP DRG): 0.000 fold
Fold Enrichment relative to AAV9, Heart (NHP) ([1]; NHP heart): 0.034 fold
Fold Enrichment relative to AAV9, Liver DNA (NHP) ([1]; NHP liver, DNA): 0.075 fold
Fold Enrichment relative to AAV9, Liver RNA (NHP) ([1]; NHP liver, RNA): 0.340 fold
Fold Enrichment relative to AAV9, Muscle (NHP) ([1]; NHP muscle): 0.000 fold
Fold Enrichment relative to AAV9, Brain (Mouse) ([2]; mouse brain): 74.979 fold
